# Measured values from article PMC10649913 (Journal for Immunotherapy of Cancer, 2023).
# What was measured:
# [1] = cited from earlier work
# AhR = conditions: cited from earlier work
# [2] = tested on: human T cells cocultured with moDCs; experiment: Human mixed lymphocyte reaction; type: cell-based; conditions: LPS and IFN-γ-matured moDCs, 3 days, 1 nM–1 µM
# [3] = tested on: coculture of H1299 NSCLC cells, primary human PBMCs, and primary human fibroblasts; experiment: BioMAP Oncology Panel; type: cell-based; conditions: 0.37, 1.1, or 3.3 µM, 48 hours
smiles,measurement,setting,value
Cc1ccccc1N=Nc1ccc(NC(=O)c2ccnn2C)c(C)c1 [CH-223191],AhR-independent activities,[1],AhR-independent proproliferative activities
CC(C)n1cnc2c(NCCc3ccc(O)cc3)nc(-c3csc4ccccc34)nc21 [SR1],Mouse cross-reactivity,AhR,not mouse cross-reactive
NS(=O)(=O)NCCNc1nonc1C(=NO)Nc1ccc(F)c(Br)c1 [epacadostat],IL-2 production from T cells (MLR),[2],no effect
same,"Cytokine production (IFN-γ, IL-17, IL-2, IL-6, TNF-α)",[3],"predominantly anti-inflammatory responses with decreases in IFN-γ, IL-2, IL-6, and IL-17"
